We go through two compounds from ChEMBL document CHEMBL2157977, “The antitumor agent doxorubicin binds to Fanconi anemia group F protein” (Bioorg Med Chem, 2012).

Assay [1] deals with T1, Fanconi anemia group F protein (Homo sapiens) (UniProt Q9NPI8).
T1 sequence (whole entry): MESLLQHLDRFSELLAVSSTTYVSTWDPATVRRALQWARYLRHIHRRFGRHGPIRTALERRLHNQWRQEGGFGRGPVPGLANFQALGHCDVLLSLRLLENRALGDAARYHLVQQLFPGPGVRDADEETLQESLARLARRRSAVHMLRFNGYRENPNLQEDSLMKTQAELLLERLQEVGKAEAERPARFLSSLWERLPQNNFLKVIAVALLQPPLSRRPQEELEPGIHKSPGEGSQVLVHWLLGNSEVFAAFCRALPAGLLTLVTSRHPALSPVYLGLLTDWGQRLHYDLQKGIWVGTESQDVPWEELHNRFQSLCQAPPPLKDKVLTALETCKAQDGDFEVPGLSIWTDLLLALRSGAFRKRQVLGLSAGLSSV
The assay is described as follows: Binding affinity to human thymus flag-tagged full-length FANCF expressed in HEK293T cells after 10 mins by pull-down assay. In kind it is cell-based. As to conditions: HEK-293T.

In assay [2] the target is Fanconi anemia group D2 protein (Homo sapiens) (UniProt Q9BXW9). The assay is described as follows: Inhibition of CDDP-induced FANCD2 monoubiquitination in human HeLa cells at 9 uM after 18 hrs by Western blot analysis. It is filed as cell-based.

Calls of active or inactive are those of the source. The rule behind the calls is not given here.

Chain of Fanconi anemia group D2 protein (Homo sapiens) (Q9BXW9 whole entry): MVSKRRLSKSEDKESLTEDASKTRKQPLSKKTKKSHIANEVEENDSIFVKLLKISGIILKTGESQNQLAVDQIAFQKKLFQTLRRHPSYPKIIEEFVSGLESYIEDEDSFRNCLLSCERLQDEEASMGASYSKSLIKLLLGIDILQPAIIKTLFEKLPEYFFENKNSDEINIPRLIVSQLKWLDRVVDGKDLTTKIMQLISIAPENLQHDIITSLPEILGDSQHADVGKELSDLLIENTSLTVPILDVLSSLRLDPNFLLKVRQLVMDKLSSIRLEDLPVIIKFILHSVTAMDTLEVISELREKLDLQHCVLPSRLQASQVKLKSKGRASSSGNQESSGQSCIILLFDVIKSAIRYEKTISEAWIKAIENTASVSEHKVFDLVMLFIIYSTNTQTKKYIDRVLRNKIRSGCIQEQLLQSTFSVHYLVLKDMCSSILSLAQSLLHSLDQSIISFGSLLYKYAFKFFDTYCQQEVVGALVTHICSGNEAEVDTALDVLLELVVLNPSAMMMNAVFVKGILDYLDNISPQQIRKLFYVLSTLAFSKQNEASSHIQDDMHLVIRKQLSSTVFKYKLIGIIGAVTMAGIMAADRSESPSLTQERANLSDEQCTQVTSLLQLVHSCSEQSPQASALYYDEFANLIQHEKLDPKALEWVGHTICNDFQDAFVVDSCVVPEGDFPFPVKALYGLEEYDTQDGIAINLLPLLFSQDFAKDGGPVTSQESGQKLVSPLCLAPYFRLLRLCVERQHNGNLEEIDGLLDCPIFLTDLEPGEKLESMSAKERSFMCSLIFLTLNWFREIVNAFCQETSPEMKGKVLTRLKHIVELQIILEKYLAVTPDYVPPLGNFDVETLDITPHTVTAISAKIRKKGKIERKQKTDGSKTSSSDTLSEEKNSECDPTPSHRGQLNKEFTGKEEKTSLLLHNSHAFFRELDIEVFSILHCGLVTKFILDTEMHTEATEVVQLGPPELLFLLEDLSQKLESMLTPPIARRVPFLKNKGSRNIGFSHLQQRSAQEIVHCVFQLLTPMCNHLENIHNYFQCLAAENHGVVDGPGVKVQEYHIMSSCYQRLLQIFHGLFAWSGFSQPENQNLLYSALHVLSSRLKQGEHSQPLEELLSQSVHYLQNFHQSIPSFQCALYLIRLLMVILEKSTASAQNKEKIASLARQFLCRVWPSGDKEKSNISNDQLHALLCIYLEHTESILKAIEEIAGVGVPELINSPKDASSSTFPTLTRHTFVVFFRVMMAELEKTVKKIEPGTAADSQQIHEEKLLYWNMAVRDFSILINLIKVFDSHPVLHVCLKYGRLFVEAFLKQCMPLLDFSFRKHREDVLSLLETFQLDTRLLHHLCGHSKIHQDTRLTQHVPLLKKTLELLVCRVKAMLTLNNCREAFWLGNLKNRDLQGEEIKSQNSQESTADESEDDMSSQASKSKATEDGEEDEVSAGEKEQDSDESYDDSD

As for `COc1cccc2c1C(=O)c1c(O)c3c(c(O)c1C2=O)C[C@@](O)(C(=O)CO)C[C@@H]3O[C@H]1C[C@H](NC(=O)CCCCCNC(=O)CCCC[C@@H]2SC[C@@H]3NC(=O)N[C@@H]32)[C@H](O)[C@H](C)O1`, the outcome in assay [1] was Active. As to `COc1cccc2c1C(=O)c1c(O)c3c(c(O)c1C2=O)C[C@@](O)(C(=O)CO)C[C@@H]3O[C@H]1C[C@H](N)[C@H](O)[C@H](C)O1`, the inhibition entry in assay [2] was “Active”.
